According to US20240158446A1, “CYCLIC COMPOUND HAVING SELECTIVE INHIBITORY ACTION ON KRAS OVER HRAS AND NRAS” (CHUGAI SEIYAKU KABUSHIKI KAISHA, priority 2021, published 2024):

Legend:
[1] = tested on: human lung cancer strain NCI-H441; assay: cells; settings: NCI-H441, 96 h, read-out: NCI-H441 IC50 (nM), NCI-H441 cell proliferation, 4 days, CellTiter-Glo;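 further: cell proliferation inhibition after four days measured by CellTiter-Glo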
[2] = target: GDP-bound NRAS wild-type protein (Homo sapiens, UniProt P01111); assay: Binding to NRAS by surface plasmon resonance (SPR), Single Cycle Kinetics; settings: ratio of KD for GDP-bound NRAS wild-type protein to KD for KRAS, SPR
[3] = target: GDP-bound KRAS wild-type protein (Homo sapiens, UniProt P01116); assay: Binding to KRAS by surface plasmon resonance (SPR), Single Cycle Kinetics; settings: SPR, Single Cycle Kinetics, GDP-bound KRAS wild-type protein; read-out: KRAS KD
[4] = target: GDP-bound HRAS wild-type protein (Homo sapiens, UniProt P01112); assay: Binding to HRAS by surface plasmon resonance (SPR), Single Cycle Kinetics; settings: ratio of KD for GDP-bound HRAS wild-type protein to KD for KRAS, SPR
Sequence of GDP-bound HRAS wild-type protein (P01112 whole entry): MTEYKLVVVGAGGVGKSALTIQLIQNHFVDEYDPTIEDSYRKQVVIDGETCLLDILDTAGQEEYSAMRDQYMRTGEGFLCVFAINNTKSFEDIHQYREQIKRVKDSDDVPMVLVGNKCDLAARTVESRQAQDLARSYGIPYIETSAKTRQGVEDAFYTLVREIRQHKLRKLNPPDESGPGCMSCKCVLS

Sequence of GDP-bound KRAS wild-type protein (P01116 whole entry): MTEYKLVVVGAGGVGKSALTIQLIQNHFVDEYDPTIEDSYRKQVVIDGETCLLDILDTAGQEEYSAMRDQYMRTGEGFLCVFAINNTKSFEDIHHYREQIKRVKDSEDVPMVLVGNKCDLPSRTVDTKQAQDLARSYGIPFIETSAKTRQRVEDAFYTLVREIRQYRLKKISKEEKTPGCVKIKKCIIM
Sequence of GDP-bound NRAS wild-type protein (P01111 whole entry): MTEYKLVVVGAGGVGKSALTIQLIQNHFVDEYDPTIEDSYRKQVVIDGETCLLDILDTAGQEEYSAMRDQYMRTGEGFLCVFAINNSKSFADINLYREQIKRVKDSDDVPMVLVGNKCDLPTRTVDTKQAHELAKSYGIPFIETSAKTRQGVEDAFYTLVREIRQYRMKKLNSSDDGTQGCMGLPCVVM

SMILES | IC50 [1] [nM] | NRAS/KRAS (KD ratio) [2] | Kd [3] [nM] | HRAS/KRAS (KD ratio) [4]
CCO[C@@H]1C[C@H]2C(=O)NC3(CC(C)(C)C3)C(=O)N(C)[C@@H](C3CCCC3)C(=O)N(C)[C@H](C(=O)N(C)CC)CC(=O)N(C)[C@@H](CC(F)F)C(=O)N[C@@H]([C@@H](C)CC)C(=O)N(C)CC(=O)N(C)[C@H]3C/C=C\CCN(C3=O)[C@@H](Cc3ccc(C(F)(F)F)cc3)C(=O)N(C)CC(=O)N[C@@H](CCc3cc(F)c(C(F)(F)F)c(F)c3)C(=O)N2C1 [PP1643] | 1.6 | A (a compound having 10 or more and less than 20 is denoted as A) | 0.055 | A (a compound having 10 or more and less than 20 is denoted as A)
CCO[C@@H]1C[C@H]2C(=O)NC3(CC(C)(C)C3)C(=O)N(C)[C@@H](C3CCCC3)C(=O)N(C)[C@H](C(=O)N(C)C)CC(=O)N(C)[C@@H](CC(F)(F)F)C(=O)N[C@@H]([C@@H](C)CC)C(=O)N(C)CC(=O)N(C)[C@H]3C/C=C\CCN(C3=O)[C@@H](Cc3ccc(C(F)(F)F)cc3)C(=O)N(C)CC(=O)N[C@@H](CCc3cc(F)c(C(F)(F)F)c(F)c3)C(=O)N2C1 [PP1644] | 2.7 | A (a compound having 10 or more and less than 20 is denoted as A) | 0.038 | A (a compound having 10 or more and less than 20 is denoted as A)
CCC[C@H]1C(=O)N[C@@H]([C@@H](C)CC)C(=O)N(C)CC(=O)N(C)[C@H]2C/C=C\CCN(C2=O)[C@@H](Cc2ccc(C(F)(F)F)cc2)C(=O)N(C)CC(=O)N[C@@H](CCc2cc(F)c(C(F)(F)F)c(F)c2)C(=O)N2C[C@H](OCC)C[C@H]2C(=O)NC2(CC(C)(C)C2)C(=O)N(C)[C@@H](C2CCCC2)C(=O)N(C)[C@H](C(=O)N(C)C)CC(=O)N1C [PP1645] | 1.8 | A (a compound having 10 or more and less than 20 is denoted as A) | 0.04 | A (a compound having 10 or more and less than 20 is denoted as A)
CCC[C@H]1C(=O)N[C@@H]([C@@H](C)CC)C(=O)N(C)CC(=O)N(C)[C@H]2C/C=C\CCN(C2=O)[C@@H](Cc2ccc(C(F)(F)F)cc2)C(=O)N(C)CC(=O)N[C@@H](CCc2cc(F)c(C(F)(F)F)c(F)c2)C(=O)N2C[C@H](OCC)C[C@H]2C(=O)NC2(CC(C)(C)C2)C(=O)N(C)[C@@H](C2CCCC2)C(=O)N(C)[C@H](C(=O)N(C)CC)CC(=O)N1C [PP1646] | 2.8 | A (a compound having 10 or more and less than 20 is denoted as A) | 0.12 | A (a compound having 10 or more and less than 20 is denoted as A)
CCO[C@@H]1C[C@H]2C(=O)NC3(CC(C)(C)C3)C(=O)N(C)[C@@H](C3CCCC3)C(=O)N(C)[C@H](C(=O)N(C)CC)CC(=O)N(C)[C@@H](CC3CC3)C(=O)N[C@@H]([C@@H](C)CC)C(=O)N(C)CC(=O)N(C)[C@H]3C/C=C\CCN(C3=O)[C@@H](Cc3ccc(C(F)(F)F)cc3)C(=O)N(C)CC(=O)N[C@@H](CCc3cc(F)c(C(F)(F)F)c(F)c3)C(=O)N2C1 [PP1648] | 2.1 | A (a compound having 10 or more and less than 20 is denoted as A) | 0.11 | A (a compound having 10 or more and less than 20 is denoted as A)
CCCC[C@H]1C(=O)N[C@@H]([C@@H](C)CC)C(=O)N(C)CC(=O)N(C)[C@H]2C/C=C\CCN(C2=O)[C@@H](Cc2ccc(C(F)(F)F)cc2)C(=O)N(C)CC(=O)N[C@@H](CCc2cc(F)c(C(F)(F)F)c(F)c2)C(=O)N2C[C@H](OCC)C[C@H]2C(=O)NC2(CC(C)(C)C2)C(=O)N(C)[C@@H](C2CCCC2)C(=O)N(C)[C@H](C(=O)N(C)C)CC(=O)N1C [PP1649] | 2.2 | A (a compound having 10 or more and less than 20 is denoted as A) | 0.064 | B (a compound having 3 or more and less than 10 is denoted as B)
CCO[C@@H]1C[C@H]2C(=O)NC3(CC(C)(C)C3)C(=O)N(C)[C@@H](C3CCCC3)C(=O)N(C)[C@H](C(=O)N(C)C)CC(=O)N(C)[C@@H](CC3CCC3)C(=O)N[C@@H]([C@@H](C)CC)C(=O)N(C)CC(=O)N(C)[C@H]3C/C=C\CCN(C3=O)[C@@H](Cc3ccc(C(F)(F)F)cc3)C(=O)N(C)CC(=O)N[C@@H](CCc3cc(F)c(C(F)(F)F)c(F)c3)C(=O)N2C1 [PP1651] | 2.3 | A (a compound having 10 or more and less than 20 is denoted as A) | 0.079 | B (a compound having 3 or more and less than 10 is denoted as B)
CCO[C@@H]1C[C@H]2C(=O)NC3(CC(C)(C)C3)C(=O)N(C)[C@@H](C3CCCC3)C(=O)N(C)[C@H](C(=O)N(C)CC)CC(=O)N(C)[C@@H](CC)C(=O)N[C@@H]([C@@H](C)CC)C(=O)N(C)CC(=O)N(C)[C@H]3C/C=C\CCN(C3=O)[C@@H](Cc3ccc(C(F)(F)F)cc3)C(=O)N(C)CC(=O)N[C@@H](CCc3ccc(C(F)(F)F)c(OC)c3)C(=O)N2C1 [PP1653] | 1.6 | A (a compound having 10 or more and less than 20 is denoted as A) | 0.097 | A (a compound having 10 or more and less than 20 is denoted as A)
CCO[C@@H]1C[C@H]2C(=O)NC3(CC(C)(C)C3)C(=O)N(C)[C@@H](C3CCCC3)C(=O)N(C)[C@H](C(=O)N(C)CC)CC(=O)N(C)[C@@H](CC(F)F)C(=O)N[C@@H]([C@@H](C)CC)C(=O)N(C)CC(=O)N(C)[C@H]3C/C=C\CCN(C3=O)[C@@H](Cc3ccc(C(F)(F)F)cc3)C(=O)N(C)CC(=O)N[C@@H](CCc3ccc(C(F)(F)F)c(OC)c3)C(=O)N2C1 [PP1655] | 1.6 | A (a compound having 10 or more and less than 20 is denoted as A) | 0.083 | A (a compound having 10 or more and less than 20 is denoted as A)
CCCN(C)C(=O)[C@@H]1CC(=O)N(C)[C@@H](COC)C(=O)N[C@@H]([C@@H](C)CC)C(=O)N(C)CC(=O)N(C)[C@H]2C/C=C\CCN(C2=O)[C@@H](Cc2ccc(C(F)(F)F)cc2)C(=O)N(C)CC(=O)N[C@@H](CCc2ccc(C(F)(F)F)c(OC)c2)C(=O)N2C[C@H](OCC)C[C@H]2C(=O)NC2(CC(C)(C)C2)C(=O)N(C)[C@@H](C2CCCC2)C(=O)N1C [PP1656] | 1.5 | AA (a compound having 20 or more is denoted as AA) | 0.065 | A (a compound having 10 or more and less than 20 is denoted as A)
CCCOC[C@H]1C(=O)N[C@@H]([C@@H](C)CC)C(=O)N(C)CC(=O)N(C)[C@H]2C/C=C\CCN(C2=O)[C@@H](Cc2ccc(C(F)(F)F)cc2)C(=O)N(C)CC(=O)N[C@@H](CCc2ccc(C(F)(F)F)c(OC)c2)C(=O)N2C[C@H](OCC)C[C@H]2C(=O)NC2(CC(C)(C)C2)C(=O)N(C)[C@@H](C2CCCC2)C(=O)N(C)[C@H](C(=O)N(C)C)CC(=O)N1C [PP1657] | 2 | A (a compound having 10 or more and less than 20 is denoted as A) | 0.06 | B (a compound having 3 or more and less than 10 is denoted as B)
